Measured values as given in the METLIN SMRT retention time set (Domingo-Almenara et al. 2019).

Experiment: gradient 5% acetonitrile 3 min, to 50% in 2 min, to 85% in 15 min, held 3 min, 100 µL/min
Details: column: Zorbax Extend-C18 2.1 x 50 mm; eluents: water / acetonitrile, 0.1% formic acid
Method in brief: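 Pure standards were analyzed in mixtures of ~100 molecules using HPLC coupled to a quadrupole time-of-flight mass spectrometer, in both positive and negative ionization mode. Separation used a Zorbax Extend-C18 column (2.1 × 50 mm, 1.8 μm) at 100 μL/min, with water and acetonitrile each containing 0.1% formic acid. Dead and dwell volumes were 40 μL and 900 μL, and data were collected over 3 months. Retention time was read from computationally picked adduct peaks, each inspected manually.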

CN(C(=O)C1CCCN(c2ncnc3c2nc2n3CCCCC2)C1)c1ccccc1F (stereo not given)
RP-LC retention time: 785 s

O=C(NCCC1CCN(S(=O)(=O)c2ccccc2)CC1)Nc1ccccc1
RP-LC retention time: 856 s

CCc1cc(=O)n(CC(=O)Nc2ccccc2C)c(N2CCOCC2)n1
RP-LC retention time: 658 s

COc1ccc(NC(=O)Cn2nc(C(=O)N3CCCCC3)c3ccccc32)cc1OC
RP-LC retention time: 756 s

Nc1nc(N2CCC3(CC2)OCCO3)ncc1C(=O)NCc1ccccc1
RP-LC retention time: 705 s

CC(C)(C)c1ccc(C(=O)Nc2nnc(-c3ccccn3)o2)cc1
RP-LC retention time: 751 s

CCC(=O)N1CCc2c(sc3ncnc(NCc4cccnc4)c23)C1
RP-LC retention time: 573 s

CC(C)c1nc2c(c(=O)n1CC(=O)NCc1cccs1)CN(Cc1ccccc1)CC2
RP-LC retention time: 650 s

CCC(CN(C)Cc1ccccc1)NC(=O)CSc1nc2ccccc2n(C)c1=O (stereo not given)
RP-LC retention time: 653 s

CCCC1=Nc2cc(C(=O)N3CCN(c4ccccn4)CC3)ccc2Sc2ccc(C)cc21
RP-LC retention time: 802 s

CCn1cc(CC(=O)NCC2CC2)c2cccnc21
RP-LC retention time: 624 s

CCCn1cc(S(=O)(=O)Nc2ccccc2F)c2cccnc21
RP-LC retention time: 869 s

Cc1cccc2c(=O)n(C3CCN(S(=O)(=O)c4ccc(F)cc4)CC3)cnc12
RP-LC retention time: 949 s

CCN1C(=O)c2cc(C(=O)NCc3ccccc3F)nn2CC1(C)C(=O)NC1CCCC1 (stereo not given)
RP-LC retention time: 659 s

CC1CC=C(O)C12OCC(C)(C)CO2 (stereo not given)
RP-LC retention time: 736 s

CC(=O)c1ccc(NC(=O)Cn2nc3c(N(C)C4CCCCC4)nccn3c2=O)cc1
RP-LC retention time: 705 s

CN(C)S(=O)(=O)c1ccc(-c2nnc(C(=O)NCc3cccc(Cl)c3)o2)cc1
RP-LC retention time: 969 s

CCN(CC)CCSC(=O)C(c1ccccc1)c1ccccc1
RP-LC retention time: 765 s

Cc1ccc(C)c(N2CCN(C(=O)c3ccc(Cn4cncn4)cc3)CC2)c1
RP-LC retention time: 860 s

COCC1CN(C2CCC2)CC12CCN(C(=O)C(C)C)CC2 (stereo not given)
RP-LC retention time: 584 s

CC1=NS(=O)(=O)N(Cc2ccccc2)C=C1C(=O)OCc1cc(F)ccc1F
RP-LC retention time: 1080 s

COc1ccc(/C=C/c2nn3c(-c4cccnc4)nnc3s2)cc1
RP-LC retention time: 860 s

COc1ccccc1C(=O)NC1(C(F)(F)F)C(=O)N(CC2CCCO2)C(C)=C1C(C)=O (stereo not given)
RP-LC retention time: 774 s

CNC(=O)CSc1nnc(N2CCN(C(=O)Cc3ccc([N+](=O)[O-])cc3)CC2)s1
RP-LC retention time: 618 s

Cc1nn(CCCC(=O)NCc2ccco2)c(=O)c2nn(-c3ccccc3)c(C)c12
RP-LC retention time: 736 s

O=C(NCc1ccco1)c1cccc(Nc2c(-c3ccc(Cl)cc3)nc3cnccn23)c1
RP-LC retention time: 826 s

O=c1c2cc(-c3ccc(F)cc3)nn2cnn1Cc1nc(-c2ccccc2Br)no1
RP-LC retention time: 1140 s

Cc1ccccc1NC(=O)Cn1nc2cc(-c3ccccc3)nc(C)n2c1=O
RP-LC retention time: 907 s

CC1Oc2ccc(S(=O)(=O)N3CCC(C(=O)NCc4ccccc4Cl)CC3)cc2NC1=O (stereo not given)
RP-LC retention time: 816 s

Cc1c(-c2noc(C3CCCCC3)n2)nnn1-c1ccccc1
RP-LC retention time: 1160 s

O=C(CSc1nnc2ccccn12)NCc1ccco1
RP-LC retention time: 576 s

Cc1nnc2ccc(NC3CC3)nn12
RP-LC retention time: 628 s

CCn1cc(CCNC(=O)c2cc(F)ccc2Cl)c2cccnc21
RP-LC retention time: 729 s

CC(C)CCn1c(SCc2cc(=O)n3ccccc3n2)nc2c(-c3ccccc3)cn(C)c2c1=O
RP-LC retention time: 1200 s

C=CCc1cc(OC)ccc1OCC(O)CN1CCN(c2ccc(OC)cc2)CC1 (stereo not given)
RP-LC retention time: 597 s

CCc1nnc(-c2ccc3ccn(CC(=O)NCc4cc(OC)ccc4OC)c3c2)o1
RP-LC retention time: 793 s

O=C(CCSc1ccccc1)Nc1cc(-c2cccs2)nn1CCO
RP-LC retention time: 793 s

COc1ccc2[nH]cc(CCNC(=O)c3cc(-c4ccccn4)nc4ccccc34)c2c1
RP-LC retention time: 814 s

CCCN1C(=O)COc2ccc(-c3noc(CCc4ccccc4)n3)cc21
RP-LC retention time: 1150 s

O=C(Nc1ccc2sccc2c1)c1ccc(Cl)s1
RP-LC retention time: 996 s

CC(C)n1c(CCNC(=O)c2ccc(Cl)cc2)nc2cccnc21
RP-LC retention time: 704 s

O=C(Cn1cccc1-c1nc(-c2ccc(F)cc2)no1)Nc1ccc2c(c1)OCO2
RP-LC retention time: 1010 s

CCC(Sc1nncn1C)C(=O)Nc1nnc(-c2cccc([N+](=O)[O-])c2)s1 (stereo not given)
RP-LC retention time: 689 s

CS(=O)(=O)Nc1ccc(CC(=O)NC2CC2)cc1
RP-LC retention time: 585 s

Cc1nn(-c2nc(-c3ccc(F)cc3)cs2)c(C)c1CC(=O)Nc1ccccc1
RP-LC retention time: 1150 s

O=C(Cn1cnc2ccccc21)Nc1nc2c(s1)C(=O)CCC2
RP-LC retention time: 558 s

O=C(Nc1ccccc1F)C1CCCN(S(=O)(=O)c2cc(-c3noc(C4CCC4)n3)cs2)C1 (stereo not given)
RP-LC retention time: 1160 s

O=C(Cn1cnc2nc3c(cc2c1=O)CCCC3)Nc1ccccc1F
RP-LC retention time: 703 s

CCCCc1ccc(NC(=O)CSc2ccc(N3CCCC(C(=O)NC4CC4)C3)nn2)cc1 (stereo not given)
RP-LC retention time: 800 s

CCCn1cc(S(=O)(=O)NCc2ccc(F)cc2Cl)c2cccnc21
RP-LC retention time: 948 s

Cn1ccc(CN2CCN(Cc3ccccc3F)CC2)cc1=O
RP-LC retention time: 554 s

Cc1ccc2c(c1)N(C)N=C(C(=O)N1CCCCCC1)S2(=O)=O
RP-LC retention time: 839 s

CCC1Oc2ccc(S(=O)(=O)N3CCC(C(=O)Nc4ccc(C)cc4)CC3)cc2NC1=O (stereo not given)
RP-LC retention time: 903 s

COc1ccc(NC(=O)N2CCC(c3nc(C(=O)N(C)C)c(C)o3)CC2)cc1Cl
RP-LC retention time: 840 s

CC(C)c1nc(C2CN(C(=O)Nc3cc(F)cc(F)c3)C2)n(C)n1
RP-LC retention time: 717 s

CCCS(=O)(=O)N1CC(=O)N(c2ccc(F)cc2C)C(C)(C(=O)NC2CCCCC2)C1 (stereo not given)
RP-LC retention time: 925 s

COC(=O)c1cc(Cl)c(NC(=O)C(C)C)cc1OC
RP-LC retention time: 767 s

COCCCNC(=O)C1CCCN(c2ncc(-c3ccc(F)cc3)cn2)C1 (stereo not given)
RP-LC retention time: 824 s

O=C1CC2(CCCC2)CC(=O)N1CCNCC1COc2ccccc2O1 (stereo not given)
RP-LC retention time: 747 s

CCOC(=O)c1cn(Cc2ccc(F)cc2)c2nc(C)ccc2c1=O
RP-LC retention time: 854 s

O=C(CSc1ccc(N2CCN(c3ccccc3)CC2)nn1)NCc1ccco1
RP-LC retention time: 735 s

Cc1noc2ncn(CC(=O)Nc3ccc(F)cc3)c(=O)c12
RP-LC retention time: 735 s

COc1ccc(-n2nc(C)c3sc(N(C)CC(=O)N4CCN(c5ccccn5)CC4)nc32)cc1
RP-LC retention time: 669 s

N#CCc1ccc(NC(=O)C2CCCN(S(=O)(=O)Cc3ccc(Cl)cc3)C2)cc1 (stereo not given)
RP-LC retention time: 905 s

CCC(C)NC(=O)CCC(=O)N1CCc2c(c(C(=O)N3CCCCC3)nn2C)C1 (stereo not given)
RP-LC retention time: 645 s

O=S(=O)(c1cccnc1)N1CCc2[nH]nc(-c3ccc(F)cc3)c2C1
RP-LC retention time: 740 s

COc1ncc(C(=O)NCCc2ccc(Cl)cc2)cn1
RP-LC retention time: 788 s

CCCN1CCN(c2ncc3c(n2)CCN(Cc2cc(F)cc(F)c2)C3)CC1
RP-LC retention time: 549 s

COc1ccc(Cl)cc1NC(=O)N1CCN(CCn2c(C(F)(F)F)nc3cccnc32)CC1
RP-LC retention time: 696 s

CC1Oc2ccc(S(=O)(=O)N3CCC(C(=O)Nc4cccc(Cl)c4)CC3)cc2NC1=O (stereo not given)
RP-LC retention time: 891 s

O=C(c1n[nH]c2ccccc12)N1CCC(c2noc(C3CC3)n2)C1 (stereo not given)
RP-LC retention time: 720 s

COC(=O)c1ccccc1NC(=O)N1CCN(c2nc3ccccc3n2C)CC1
RP-LC retention time: 680 s

COc1ccc(-c2cn3ccn(-c4cccc(Cl)c4)c(=O)c3n2)cc1
RP-LC retention time: 837 s

Cc1noc2nc(C)n(CC(=O)NCc3ccccc3)c(=O)c12
RP-LC retention time: 716 s

Cc1nc(-c2ccc(N3CCN(C(=O)c4n[nH]c5ccccc45)CC3)nc2)sc1C
RP-LC retention time: 864 s

COC(=O)N1CCc2ccc(F)cc2C1C(=O)Nc1ccc(OC)c(Cl)c1 (stereo not given)
RP-LC retention time: 874 s

COc1ccc(NC(=O)CN2CCc3[nH]c4c(C)c(C)ccc4c(=O)c3C2)cc1Cl
RP-LC retention time: 650 s

O=C(NN1CCCCC1)NN1CCCCC1
RP-LC retention time: 626 s

CCOc1cccc(-c2noc(Cn3ncn4nc(-c5cc(C)ccc5C)cc4c3=O)n2)c1
RP-LC retention time: 1280 s

Cn1ncc2c(N3CCCC3)nc(C(=O)NCc3cccnc3)nc21
RP-LC retention time: 562 s

COCCCNC(=O)C1CCN(c2cncnc2N2CCOCC2)CC1
RP-LC retention time: 550 s

Cc1ccc(NC(=O)C2CCN(S(=O)(=O)c3c(C)[nH]c(C)c3C(=O)N3CCCC3)CC2)cc1F
RP-LC retention time: 753 s

CCc1nnc(NC(=O)CSc2nnc(NC(=O)NC(C)(C)C)s2)s1
RP-LC retention time: 672 s

Cc1ccc2c(c1)C(=O)NC1(CCN(C(=O)NC3CCCCC3)CC1)N2C
RP-LC retention time: 763 s

Cc1nc(Cn2cccc2C(=O)Nc2ccc(F)cc2)no1
RP-LC retention time: 815 s

CC(C)C(=O)OC[C@H]1O[C@@H](n2ccc(N)nc2=O)[C@](C)(F)[C@@H]1OC(=O)C(C)C
RP-LC retention time: 799 s

COc1ccc(-n2cc(-c3nc(-c4ccccn4)no3)c3ccccc3c2=O)cc1OC
RP-LC retention time: 821 s

COc1ccc(CC(=O)N2CCC3(C2)C(=O)N(C)c2ccc(OC)cc23)c(Cl)c1 (stereo not given)
RP-LC retention time: 825 s

CCN1C(=O)C(C)(C(=O)NCc2cccc(Cl)c2)Oc2cccnc21 (stereo not given)
RP-LC retention time: 903 s

O=C(NCc1ccccc1F)C1CCN(c2cc(N3CCCCC3)ncn2)CC1
RP-LC retention time: 680 s
